Reference: PMC6156230, “Caspase-1 inhibition alleviates cognitive impairment and neuropathology in an Alzheimer’s disease mouse model” (Nature Communications, 2018)

Legend:
Assay in all cases: fluorogenic AFC peptide substrate assay
Format in all cases: biochemical
[1] = molecular target: T1, human Casp5 (Homo sapiens, UniProt P51878); details: 10 µM Ac-WEHD-AFC, pH 7.2, 37 °C, 10 mM DTT
T1 construct: recombinant caspase, commercial (BioVision)
T1 sequence (P51878 137-327): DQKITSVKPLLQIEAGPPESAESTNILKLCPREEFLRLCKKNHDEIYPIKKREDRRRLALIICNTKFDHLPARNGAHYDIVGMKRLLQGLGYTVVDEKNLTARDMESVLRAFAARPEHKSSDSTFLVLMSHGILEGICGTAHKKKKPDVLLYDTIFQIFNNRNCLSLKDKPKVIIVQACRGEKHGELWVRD
T1 sequence (P51878 347-434): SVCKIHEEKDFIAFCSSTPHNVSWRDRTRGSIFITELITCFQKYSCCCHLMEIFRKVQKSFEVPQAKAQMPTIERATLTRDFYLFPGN

[2] = molecular target: T2, human Casp9 (Homo sapiens, UniProt P55211); details: 10 µM Ac-LEHD-AFC, pH 7.2, 37 °C, 10 mM DTT
T2 construct: recombinant caspase, commercial (BioVision)
T2 sequence (P55211 1-315): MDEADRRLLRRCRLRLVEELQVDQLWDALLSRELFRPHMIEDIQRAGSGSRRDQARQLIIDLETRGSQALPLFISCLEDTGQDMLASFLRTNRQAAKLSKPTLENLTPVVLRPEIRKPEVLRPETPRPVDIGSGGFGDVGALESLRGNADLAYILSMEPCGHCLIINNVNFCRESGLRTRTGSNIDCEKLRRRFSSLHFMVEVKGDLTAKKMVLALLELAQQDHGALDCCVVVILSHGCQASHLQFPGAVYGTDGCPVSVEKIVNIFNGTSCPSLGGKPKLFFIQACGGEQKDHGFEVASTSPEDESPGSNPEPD
T2 sequence (P55211 331-416): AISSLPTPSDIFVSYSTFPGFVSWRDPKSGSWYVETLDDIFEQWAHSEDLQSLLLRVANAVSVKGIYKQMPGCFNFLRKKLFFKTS

[3] = molecular target: T3, human Casp1 (Homo sapiens, UniProt P29466)
T3 construct: recombinant caspase, commercial (BioVision)
T3 sequence (P29466 120-297): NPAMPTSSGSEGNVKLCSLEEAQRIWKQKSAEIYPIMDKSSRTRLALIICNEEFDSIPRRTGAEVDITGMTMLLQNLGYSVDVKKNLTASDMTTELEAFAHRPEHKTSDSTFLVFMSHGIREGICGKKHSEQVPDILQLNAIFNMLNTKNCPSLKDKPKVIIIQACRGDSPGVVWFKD
T3 sequence (P29466 317-404): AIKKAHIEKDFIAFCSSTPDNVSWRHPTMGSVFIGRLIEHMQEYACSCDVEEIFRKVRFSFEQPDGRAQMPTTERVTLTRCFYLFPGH

[4] = molecular target: T4, mouse recombinant Casp1 (Mus musculus, UniProt P29452)
T4 construct: recombinant caspase, commercial
T4 sequence (P29452 119-296): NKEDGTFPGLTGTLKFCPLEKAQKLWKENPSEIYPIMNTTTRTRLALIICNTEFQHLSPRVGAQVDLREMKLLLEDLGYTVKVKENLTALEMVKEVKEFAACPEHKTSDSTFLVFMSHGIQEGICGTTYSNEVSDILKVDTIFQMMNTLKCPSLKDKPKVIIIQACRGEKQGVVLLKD
T4 sequence (P29452 315-402): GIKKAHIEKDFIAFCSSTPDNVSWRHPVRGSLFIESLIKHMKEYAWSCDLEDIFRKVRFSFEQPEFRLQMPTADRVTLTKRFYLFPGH

[5] = molecular target: T5, human Casp10 (Homo sapiens, UniProt Q92851); details: 10 µM Ac-IETD-AFC, pH 7.2, 37 °C, 10 mM DTT
T5 construct: recombinant caspase, commercial (BioVision)
T5 sequence (Q92851 220-415): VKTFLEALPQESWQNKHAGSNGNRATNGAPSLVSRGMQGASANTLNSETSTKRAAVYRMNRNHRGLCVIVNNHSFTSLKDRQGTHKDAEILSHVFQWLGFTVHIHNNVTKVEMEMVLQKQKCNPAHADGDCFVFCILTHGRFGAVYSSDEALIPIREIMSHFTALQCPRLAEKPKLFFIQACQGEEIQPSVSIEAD
T5 sequence (Q92851 416-521): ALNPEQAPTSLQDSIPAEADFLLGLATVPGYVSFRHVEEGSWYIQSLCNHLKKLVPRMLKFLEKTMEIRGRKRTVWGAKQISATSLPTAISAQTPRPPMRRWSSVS

[6] = molecular target: T6, human Casp8 (Homo sapiens, UniProt Q14790); details: 10 µM Ac-IETD-AFC, pH 7.2, 37 °C, 10 mM DTT
T6 construct: recombinant caspase, commercial (BioVision)
T6 sequence (Q14790 217-374): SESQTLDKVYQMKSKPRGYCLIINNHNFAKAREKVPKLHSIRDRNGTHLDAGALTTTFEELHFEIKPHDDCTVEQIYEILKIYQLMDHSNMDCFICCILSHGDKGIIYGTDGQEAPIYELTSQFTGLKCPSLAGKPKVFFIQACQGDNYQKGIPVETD
T6 sequence (Q14790 385-479): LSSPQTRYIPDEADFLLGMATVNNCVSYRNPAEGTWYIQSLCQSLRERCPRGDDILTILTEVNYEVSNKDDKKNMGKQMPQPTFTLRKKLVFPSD

Compound | IC50 [1] | IC50 [2] | IC50 [3] [nM] | IC50 [4] [nM] | IC50 [5] | IC50 [6]
CC(C)(C)[C@H](NC(=O)c1ccc(N)c(Cl)c1)C(=O)N1CCC[C@H]1C(=O)N[C@H](C=O)CC(=O)O [VRT-043198] | Casp5, Casp8, Casp9 and Casp10, which were inhibited in the nanomolar range in vitro | Casp5, Casp8, Casp9 and Casp10, which were inhibited in the nanomolar range in vitro | 9.91 | 18 | Casp5, Casp8, Casp9 and Casp10, which were inhibited in the nanomolar range in vitro | Casp5, Casp8, Casp9 and Casp10, which were inhibited in the nanomolar range in vitro
CCO[C@@H]1OC(=O)C[C@@H]1NC(=O)[C@@H]1CCCN1C(=O)[C@@H](NC(=O)c1ccc(N)c(Cl)c1)C(C)(C)C [VX-765] | Casp5, Casp8, Casp9 and Casp10, which were inhibited in the nanomolar range in vitro | Casp5, Casp8, Casp9 and Casp10, which were inhibited in the nanomolar range in vitro | – | – | Casp5, Casp8, Casp9 and Casp10, which were inhibited in the nanomolar range in vitro | Casp5, Casp8, Casp9 and Casp10, which were inhibited in the nanomolar range in vitro
